Bridge positions count the residues as written; N and C are the ends. Square brackets hold non-standard residues; d marks the D form. Ends that are not written are not given here. d(aIle) = CC[C@H](C)[C@@H](N)C(=O)O; dNMeF = CN[C@H](Cc1ccccc1)C(=O)O
Legend:
[1] = 2D NH and DNP ssNMR of teixobactin-Lipid II complex in native cellular membranes; format: binding, Micrococcus flavus DSM 1790
Method: 1D, 2D, and 3D ^1H-detected experiments were performed at 60 kHz MAS frequency using magnetic fields of 16.4, 18.8, and 22.2 T (700, 800, and 950 MHz ^1H-frequency) at temperatures of 305 K. All ^1H-detected experiments were dipolar-based. PISSARRO low-power decoupling[47] was used during detection periods. 2D ^13C^13C spin diffusion experiments were performed with PARISxy[48] recoupling at 950 MHz and 15.5, 17, or 18 kHz MAS frequency at 270 K temperature using mixing times of 25–1000 ms. SPINAL64[49] was used in detection periods. The 2D scalar ^13C^13C TOBSY[50] experiment was acquired at 950 MHz with 8 kHz MAS at 295 K temperature with 6 ms ^13C–^13C magnetization transfer time. Chemical shift assignments were performed using standard ^1H-detected 3D CANH and CONH experiments[36],[51] in combination with 2D ^13C^13C PARISxy[48] experiments with different magnetization transfer times (see Supplementary Tables 1 and 2). DNP-enhanced 2D ^13C^13C spin diffusion (20 ms mixing time) ssNMR experiments[52] were carried out using a 263 GHz microwave frequency, 400 MHz ^1H frequency setup (Bruker Biospin) at 100 K temperature and 8.5 kHz MAS.
Native membrane vesicle preparations were obtained from Micrococcus flavus DSM 1790[13],[16]. The amount of antibiotic was ~7.5 and 30 nmol for the 1.3 and 3.2 mm rotors, respectively. […]

[2] = ssNMR 15N T1rho relaxation (dynamics of bound teixobactin), mDAP-Lipid II; details: 950 MHz, 60 kHz MAS
Method: Relaxation studies: ^1H-detected ^15N T1rho relaxation experiments were carried out at 950 and 700 MHz magnetic field, respectively, using 60 kHz MAS[51]. The ^15N transverse magnetization decay was probed with a ^15N spinlock field of 17.5 kHz. For the bulk, we measured the intensity of the most intense signal at ~8.80 ^1H ppm. T1rho trajectories were fit to single exponentials.
Lipid I or II-doped multi-laminar vesicle preparations: DOPC or DOPG lipids were mixed with Lipid I or II in 1:1 MeOH:CHCl3 at the final Lipid I or II molar ratio (0–4 mol%/mol). The mixtures were dried and the lipid films were hydrated by vortexing with 2 mL of a teixobactin solution in 40 mM phosphate, 25 mM NaCl, pH 7.0.
(§1) SSNMR samples: MLVs were collected by centrifugation (20,000×g) and loaded into ssNMR rotors. For 3.2 mm rotors, we used 800 nmol of antibiotic with unlabelled Lipid II or I, while we used 400 nmol with labelled Lipid II. For 1.3 mm rotors, samples contained 200 nmol of antibiotic for unlabelled Lipid II or I, while we used 100 nmol for labelled Lipid II. For all ssNMR samples, we used 4 mol%/mol Lipid II or I in the MLVs.

[3] = 31P and 2D 1H31P ssNMR of pyrophosphate binding interface; details: membranes
From the text: Structural studies: To probe intermolecular contacts between ^13C,^15N-labelled [R4L10]-teixobactin molecules bound to unlabelled (^12C,^14N) Lipid II, we ran 2D ^13C^13C PARIS experiments with magnetization transfer times of 50, 300, 600, and 1000 ms at 950 MHz and 15.5 kHz MAS. To probe interfacial contacts between ^13C,^15N-labelled [R4L10]-teixobactin and ^13C,^15N-labelled Lipid II, we ran 2D ^13C^13C PARIS experiments with magnetization transfer times of 25, 50, 600, and 1000 ms at 950 MHz and 18 kHz MAS. 1D ^31P CP experiments were acquired at 500 MHz with 12 kHz MAS. The 2D ^1H^31P experiment was acquired at 800 MHz magnetic field and 60 kHz MAS using 1.75 ms CP transfer from ^1H to ^31P.
as §1

[4] = Pyrene excimer fluorescence of pyrene-labelled Lipid II in DOPC LUVs (oligomerisation); details: 0.5 mol% pyrene-Lipid II, pH 8.0, 20 °C
Method: The oligomerisation of fluorescent pyrene-labelled Lipid II was observed upon binding of [R4L10]-teixobactin. DOPC LUVs containing 0.5 (mol%) of pyrene-labelled Lipid II in buffer (10 mM Tris–Cl, 100 mM NaCl, pH 8.0) were prepared as described above. All fluorescence experiments were performed with a Cary Eclipse (FL0904M005) fluorometer. All samples (1.0 mL) were continuously stirred in a 10 × 4-mm quartz cuvette and kept at 20 °C. [R4L10]-teixobactin was titrated to the LUVs. Pyrene fluorescence was followed with spectral recordings between 360 and 550 nm (λex 350 nm, bandwidth 5 nm). The emission at 380 and 495 nm was recorded and averaged over 50 s, to obtain the values for the monomer and excimer intensity, respectively, to determine the excimer over monomer ratio for all conditions. […]
398, and 417 nm. Moreover, pyrene can display a characteristic fluorescence peak at longer wavelengths (490 nm), which occurs only when two pyrene rings reside within 10 Å of each other and form an excited state dimer, which known as an excimer.2 Source data are provided as a Source Data file. a) Fluorescence spectra of pyrene-labelled Lipid II symmetrically in large unilamellar vesicles (LUVs) at increasing concentrations of [R4L10]-teixobactin. […]
c) Quantification of the excimer over monomer ratio as a function of the pyrene-labelled Lipid II concentration. […]

[5] = bound to mDAP-Lipid II in DOPC (DAP-LII_PC)
[6] = bound to mDAP-Lipid II in DOPG (DAP-LII_PG)

## D-Arg4-Leu10-teixobactin ([dNMeF]IS[dR][d(aIle)]IS[dT]ALI; ester 8-C; also: 13C,15N labels at Ile2, Ser3, Ile6, Ser7 and one Ala (residue not fully stated)) [[R4L10]-teixobactin, teixobactin analogue in which D-Gln4 and L-allo-enduracididine10 are replaced by D-Arg4 and L-Leu10]
[1]; DNP-ssNMR 2D 13C13C, M. flavus membranes vs DOPC
  oligomerization and complex structure in natural membranes: conserved in natural membranes
[1]; M. flavus membranes, 7.5 nmol of drug
  cellular 2D NH spectrum vs anionic membranes: strongly resembled the one in anionic membranes
[2]; [5]
  Bulk 15N R1rho: 22.15 s⁻¹
  Bulk 15N T1rho: 45.14 ms
[2]; [6]
  Bulk 15N R1rho: 36.17 s⁻¹
  Bulk 15N T1rho: 27.65 ms
[3]
  coordination of Lipid II pyrophosphate: directly coordinate the pyrophosphate
[4]
  speed of Lipid II oligomerization after addition: virtually immediately
